Experimental data: US9475816B2, “Substituted-1,4-dihydropyrazolo[4,3-b]indoles” (TAKEDA PHARMACEUTICAL COMPANY LIMITED, priority 2012, dated 2016)

Assays:
human MetAP2 enzyme [1] = molecular target: T1, human MetAP2 enzyme (Homo sapiens, UniProt P50579); test: MetAP2 enzyme assay, MetAP2 enzyme complexed with cobalt ions; conditions: MetAP2 Co pIC50, 10 μM CoCl2; -log(IC50), IC50 molar
human MetAP2 enzyme [2] = molecular target: T1, human MetAP2 enzyme; test: MetAP2 enzyme assay, MetAP2 enzyme complexed with manganese ions; conditions: MetAP2 Mn pIC50, 10 μM MnCl2; -log(IC50), IC50 molar
Protocol: DNA encoding the full-length sequence of human MetAP2 enzyme is amplified by PCR and cloned into a pFastBac expression vector (Invitrogen). Recombinant baculovirus incorporating the MetAP2 construct is generated by transposition using the Bac-to-Bac system (Invitrogen). The expression of recombinant protein is carried out by infection of Spodoptera frugiperda Sf9 cells (Invitrogen) in 5L Wave Bioreactors (Wave Biotech). Recombinant protein is isolated from cellular extracts by binding to an SP Hitrap Fast Flow or SP Sepharose (Sigma) column, and the protein is eluted using a NaCl gradient. Partially purified extracts of MetAP2 are further purified by an AKTA FPLC over a Superdex-200 column (GE). The purity of MetAP2 protein is determined on denaturing SDS-PAGE gel.
The results for each well are expressed as percent inhibition and calculated using the equation:

T1 sequence (P50579 whole entry): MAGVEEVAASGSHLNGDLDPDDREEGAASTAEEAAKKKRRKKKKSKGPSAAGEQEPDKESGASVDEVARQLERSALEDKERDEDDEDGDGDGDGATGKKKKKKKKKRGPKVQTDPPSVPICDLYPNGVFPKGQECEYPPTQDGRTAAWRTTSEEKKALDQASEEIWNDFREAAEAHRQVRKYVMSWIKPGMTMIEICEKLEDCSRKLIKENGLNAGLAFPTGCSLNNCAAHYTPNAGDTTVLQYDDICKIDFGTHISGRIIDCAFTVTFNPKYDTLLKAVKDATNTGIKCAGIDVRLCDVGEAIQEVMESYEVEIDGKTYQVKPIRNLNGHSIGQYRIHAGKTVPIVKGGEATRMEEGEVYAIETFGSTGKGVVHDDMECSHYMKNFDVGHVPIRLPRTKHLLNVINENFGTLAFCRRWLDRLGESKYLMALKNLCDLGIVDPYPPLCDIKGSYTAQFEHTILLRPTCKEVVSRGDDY

IC50 (human MetAP2 enzyme [1]) [nM] | IC50 (human MetAP2 enzyme [2]) [nM] | Structure (SMILES)
10 | 15.8 | Cc1nc(N)ccc1-n1c2ccc(F)cc2c2[nH]ncc21 [Example 42, 5-(7-Fluoropyrazolo[4,3-b]indol-4(1H)-yl)-6-methylpyridin-2-amine]
12.6 | 12.6 | Cc1nc(N2CC(F)(F)C2)ncc1-n1c2ccc(F)cc2c2[nH]ncc21 [Example 43, 4-(2-(3,3-Difluoroazetidin-1-yl)-4-methylpyrimidin-5-yl)-7-fluoro-1,4-dihydropyrazolo[4,3-b]indole]
7.94 | 10 | Cc1nc(N2CCNC(=O)C2)ncc1-n1c2ccc(F)cc2c2[nH]ncc21 [Example 44, 4-(5-(7-Fluoropyrazolo[4,3-b]indol-4(1H)-yl)-4-methylpyrimidin-2-yl)piperazin-2-one]
6.31 | 12.6 | CNc1cc(C)c(-n2c3ccc(F)cc3c3[nH]ncc32)cn1 [Example 45, 5-(7-Fluoropyrazolo[4,3-b]indol-4(1H)-yl)-N,4-dimethylpyridin-2-amine]
20 | 20 | Cn1nccc1-n1c2ccc(F)cc2c2[nH]ncc21 [Example 46, 7-Fluoro-4-(1-methyl-1H-pyrazol-5-yl)-1,4-dihydropyrazolo[4,3-b]indole]
7.94 | 12.6 | Cc1nc(N2CC(CO)C2)ncc1-n1c2ccc(F)cc2c2[nH]ncc21 [Example 47, (1-(5-(7-Fluoropyrazolo[4,3-b]indol-4(1H)-yl)-4-methylpyrimidin-2-yl)azetidin-3-yl)methanol]
15.8 | 12.6 | Cn1nc(C(N)=O)cc1-n1c2ccc(F)cc2c2[nH]ncc21 [Example 48, 5-(7-Fluoropyrazolo[4,3-b]indol-4(1H)-yl)-1-methyl-1H-pyrazole-3-carboxamide]
63.1 | 31.6 | Cc1ncncc1-n1c2ccc(F)cc2c2[nH]ncc21 [Example 49, 7-Fluoro-4-(4-methylpyrimidin-5-yl)-1,4-dihydropyrazolo[4,3-b]indole]
31.6 | 50.1 | O=C(c1ccc(Cn2c3ccc(F)cc3c3[nH]ncc32)cc1)N1CCOCC1 [Example 52, (4-((7-Fluoropyrazolo[4,3-b]indol-4(1H)-yl)methyl)phenyl)(morpholino)methanone]
50.1 | 79.4 | CN1CCN(C(=O)c2ccc(Cn3c4ccc(F)cc4c4[nH]ncc43)cc2)CC1 [Example 53, (4-((7-Fluoropyrazolo[4,3-b]indol-4(1H)-yl)methyl)phenyl)(4-methylpiperazin-1-yl)methanone]
31.6 | 39.8 | O=C(NCCO)c1ccc(Cn2c3ccc(F)cc3c3[nH]ncc32)cc1 [Example 54, 4-((7-Fluoropyrazolo[4,3-b]indol-4(1H)-yl)methyl)-N-(2-hydroxyethyl)benzamide]
25.1 | 15.8 | Cc1nc(N2CC[C@H](O)C2)ncc1-n1c2ccc(F)cc2c2[nH]ncc21 [Example 55, (S)-1-(5-(7-Fluoropyrazolo[4,3-b]indol-4(1H)-yl)-4-methylpyrimidin-2-yl)pyrrolidin-3-ol]
12.6 | 7.94 | Cc1nc(N2CCC(C#N)CC2)ncc1-n1c2ccc(F)cc2c2[nH]ncc21 [Example 56, 1-(5-(7-Fluoropyrazolo[4,3-b]indol-4(1H)-yl)-4-methylpyrimidin-2-yl)piperidine-4-carbonitrile]
25.1 | 12.6 | Cc1nc(N2CCC(F)CC2)ncc1-n1c2ccc(F)cc2c2[nH]ncc21 [Example 57, 7-Fluoro-4-(2-(4-fluoropiperidin-1-yl)-4-methylpyrimidin-5-yl)-1,4-dihydropyrazolo[4,3-b]indole]
15.8 | 12.6 | Cc1nc(N2CC[C@@H](O)C2)ncc1-n1c2ccc(F)cc2c2[nH]ncc21 [Example 58, (3R)-1-(5-(7-Fluoropyrazolo[4,3-b]indol-4(1H)-yl)-4-methylpyrimidin-2-yl)pyrrolidin-3-ol]
12.6 | 10 | Cc1nc(N2CCC(CO)CC2)ncc1-n1c2ccc(F)cc2c2[nH]ncc21 [Example 59, (1-(5-(7-Fluoropyrazolo[4,3-b]indol-4(1H)-yl)-4-methylpyrimidin-2-yl)piperidin-4-yl)methanol]
3.16 | 10 | Cc1nc(N2CCN(C)CC2)ncc1-n1c2ccc(F)cc2c2[nH]ncc21 [Example 60, 7-Fluoro-4-(4-methyl-2-(4-methylpiperazin-1-yl)pyrimidin-5-yl)-1,4-dihydropyrazolo[4,3-b]indole]
15.8 | 12.6 | Cc1ncccc1-n1c2ccc(F)cc2c2[nH]ncc21 [Example 61, 7-Fluoro-4-(2-methylpyridin-3-yl)-1,4-dihydropyrazolo[4,3-b]indole]
25.1 | 31.6 | Cc1nn(C)c(C)c1-n1c2ccc(F)cc2c2[nH]ncc21 [Example 62, 7-Fluoro-4-(1,3,5-trimethyl-1H-pyrazol-4-yl)-1,4-dihydropyrazolo[4,3-b]indole]

IC50 (human MetAP2 enzyme [1]) [nM] | IC50 (human MetAP2 enzyme [2]) [nM] | Structure (SMILES)
15.8 | 15.8 | Cc1cc(N(C)CCO)ncc1-n1c2ccc(F)cc2c2[nH]ncc21 [Example 63, 2-((5-(7-Fluoropyrazolo[4,3-b]indol-4(1H)-yl)-4-methylpyridin-2-yl)(methyl)amino)ethanol]
15.8 | 12.6 | Cc1nc(N2CCNCC2)ccc1-n1c2ccc(F)cc2c2[nH]ncc21 [Example 64, 7-Fluoro-4-(2-methyl-6-(piperazin-1-yl)pyridin-3-yl)-1,4-dihydropyrazolo[4,3-b]indole]
12.6 | 10 | COCc1[nH]ncc1-n1c2ccc(F)cc2c2[nH]ncc21 [Example 65, 7-Fluoro-4-(5-(methoxymethyl)-1H-pyrazol-4-yl)-1,4-dihydropyrazolo[4,3-b]indole]
10 | 3.16 | Cc1nc(N2CCOCC2)ccc1-n1c2ccc(F)cc2c2[nH]ncc21 [Example 66, 4-(5-(7-Fluoropyrazolo[4,3-b]indol-4(1H)-yl)-6-methylpyridin-2-yl)morpholine]
10 | 3.16 | Cc1c(-n2c3ccc(F)cc3c3[nH]ncc32)cnc(N)c1C [Example 68, 5-(7-Fluoropyrazolo[4,3-b]indol-4(1H)-yl)-3,4-dimethylpyridin-2-amine]
20 | 5.01 | COc1ccc(-n2c3ccc(F)cc3c3[nH]ncc32)c(C)n1 [Example 69, 7-Fluoro-4-(6-methoxy-2-methylpyridin-3-yl)-1,4-dihydropyrazolo[4,3-b]indole]
20 | 10 | Cc1c(-n2c3ccc(F)cc3c3[nH]ncc32)ccc2ncnn12 [Example 70, 7-Fluoro-4-(5-methyl-[1,2,4]triazolo[1,5-a]pyridin-6-yl)-1,4-dihydropyrazolo[4,3-b]indole]
12.6 | 10 | Cc1c(-n2c3ccc(F)cc3c3[nH]ncc32)ccc2[nH]ncc12 [Example 71, 7-Fluoro-4-(4-methyl-1H-indazol-5-yl)-1,4-dihydropyrazolo[4,3-b]indole]
7.94 | 3.16 | Cc1nc(N2CCC[C@H]2C(N)=O)ncc1-n1c2ccc(F)cc2c2[nH]ncc21 [Example 72, (2S)-1-(5-(7-Fluoropyrazolo[4,3-b]indol-4(1H)-yl)-4-methylpyrimidin-2-yl)pyrrolidine-2-carboxamide]
6.31 | 3.16 | Cc1nc(N2CCC[C@@H]2C(N)=O)ncc1-n1c2ccc(F)cc2c2[nH]ncc21 [Example 73, (2R)-1-(5-(7-Fluoropyrazolo[4,3-b]indol-4(1H)-yl)-4-methylpyrimidin-2-yl)pyrrolidine-2-carboxamide]
10 | 7.94 | Cc1nc(NCCO)ncc1-n1c2ccc(F)cc2c2[nH]ncc21 [Example 74, 2-((5-(7-Fluoropyrazolo[4,3-b]indol-4(1H)-yl)-4-methylpyrimidin-2-yl)amino)ethanol]
7.94 | 5.01 | Cc1nc(N[C@H](C)CO)ncc1-n1c2ccc(F)cc2c2[nH]ncc21 [Example 75, (2R)-2-((5-(7-Fluoropyrazolo[4,3-b]indol-4(1H)-yl)-4-methylpyrimidin-2-yl)amino)propan-1-ol]
10 | 6.31 | Cc1nc(N2C[C@@H](O)[C@H](O)C2)ncc1-n1c2ccc(F)cc2c2[nH]ncc21 [Example 76, (3R,4R)-1-(5-(7-Fluoropyrazolo[4,3-b]indol-4(1H)-yl)-4-methylpyrimidin-2-yl)pyrrolidine-3,4-diol]
7.94 | 10 | Cc1nc(N2CCO[C@@H](CO)C2)ncc1-n1c2ccc(F)cc2c2[nH]ncc21 [Example 77, ((2R)-4-(5-(7-Fluoropyrazolo[4,3-b]indol-4(1H)-yl)-4-methylpyrimidin-2-yl)morpholin-2-yl)methanol]
15.8 | 10 | Cc1nc(N2CCC(O)CC2)ncc1-n1c2ccc(F)cc2c2[nH]ncc21 [Example 78, 1-(5-(7-Fluoropyrazolo[4,3-b]indol-4(1H)-yl)-4-methylpyrimidin-2-yl)piperidin-4-ol]
15.8 | 25.1 | Cc1nc2c(cc1-n1c3ccc(F)cc3c3[nH]ncc31)ncn2C[C@H](O)CO [Example 79, (2S)-3-(6-(7-Fluoropyrazolo[4,3-b]indol-4(1H)-yl)-5-methyl-3H-imidazo[4,5-b]pyridin-3-yl)propane-1,2-diol]
20 | 31.6 | Cc1nc2c(cc1-n1c3ccc(F)cc3c3[nH]ncc31)ncn2CCCO [Example 80, 3-(6-(7-Fluoropyrazolo[4,3-b]indol-4(1H)-yl)-5-methyl-3H-imidazo[4,5-b]pyridin-3-yl)propan-1-ol]
5.01 | 6.31 | Cc1nc2c(cc1-n1c3ccc(F)cc3c3[nH]ncc31)[nH]c(=O)n2CCCO [Example 81, 6-(7-Fluoropyrazolo[4,3-b]indol-4(1H)-yl)-3-(3-hydroxypropyl)-5-methyl-1H-imidazo[4,5-b]pyridin-2(3H)-one]
